As usually defined, the AC50 is the midpoint of the concentration-response curve, whichever way the signal moves. A higher AC50 goes with weaker potency.

For assay [1], the target named is T1, Muscarinic acetylcholine receptor M1 (Homo sapiens, UniProt P11229).
T1 sequence (P11229 whole entry): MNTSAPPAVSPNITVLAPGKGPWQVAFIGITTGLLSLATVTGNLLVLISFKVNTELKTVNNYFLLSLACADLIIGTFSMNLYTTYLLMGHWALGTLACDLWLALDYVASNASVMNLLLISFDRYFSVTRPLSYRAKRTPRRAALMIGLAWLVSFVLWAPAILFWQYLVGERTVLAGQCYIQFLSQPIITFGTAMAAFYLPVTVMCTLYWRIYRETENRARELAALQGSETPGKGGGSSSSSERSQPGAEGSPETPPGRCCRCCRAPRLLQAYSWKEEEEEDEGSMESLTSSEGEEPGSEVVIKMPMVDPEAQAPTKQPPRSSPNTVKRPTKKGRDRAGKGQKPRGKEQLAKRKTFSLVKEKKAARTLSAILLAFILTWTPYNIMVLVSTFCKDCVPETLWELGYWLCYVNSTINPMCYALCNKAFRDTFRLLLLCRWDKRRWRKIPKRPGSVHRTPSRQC
Format: functional, cell-based.

Assay [2] has as its target T1, Muscarinic acetylcholine receptor M1. Type of assay: functional, cell-based. The source holds these as a separate data set.
Assay [3] concerns the target 5-hydroxytryptamine receptor 2A (Homo sapiens, UniProt P28223). Format: functional, cell-based.
The target in assay [4] is Kappa-type opioid receptor (Homo sapiens, UniProt P41145).
Kappa-type opioid receptor, sequence (P41145 whole entry): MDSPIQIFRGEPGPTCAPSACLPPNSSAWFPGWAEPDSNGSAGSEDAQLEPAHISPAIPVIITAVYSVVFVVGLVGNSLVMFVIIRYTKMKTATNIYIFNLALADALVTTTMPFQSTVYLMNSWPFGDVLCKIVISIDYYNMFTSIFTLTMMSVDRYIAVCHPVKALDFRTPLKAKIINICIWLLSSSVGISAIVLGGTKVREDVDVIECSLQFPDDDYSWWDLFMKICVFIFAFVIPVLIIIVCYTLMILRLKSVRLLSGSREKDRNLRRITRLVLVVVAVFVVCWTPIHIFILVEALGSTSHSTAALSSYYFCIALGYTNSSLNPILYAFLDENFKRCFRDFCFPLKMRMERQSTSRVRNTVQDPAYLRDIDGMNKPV
The next assay has as its target T2, Thromboxane A2 receptor (Homo sapiens, UniProt P21731).
T2 sequence (P21731 whole entry): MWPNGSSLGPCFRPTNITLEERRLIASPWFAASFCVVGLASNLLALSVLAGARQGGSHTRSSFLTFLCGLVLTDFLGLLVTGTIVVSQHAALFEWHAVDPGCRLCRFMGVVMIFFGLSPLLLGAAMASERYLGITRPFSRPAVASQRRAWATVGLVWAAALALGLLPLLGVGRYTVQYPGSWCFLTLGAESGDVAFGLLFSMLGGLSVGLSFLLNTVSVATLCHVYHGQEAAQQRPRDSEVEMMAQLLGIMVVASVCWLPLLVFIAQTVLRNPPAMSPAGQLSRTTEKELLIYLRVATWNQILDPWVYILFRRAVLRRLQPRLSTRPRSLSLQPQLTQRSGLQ
Format: functional, cell-based.

The target of assay [5] is Gamma-aminobutyric acid receptor subunit alpha-1 (Rattus norvegicus, UniProt P62813).
Gamma-aminobutyric acid receptor subunit alpha-1, sequence (P62813 whole entry): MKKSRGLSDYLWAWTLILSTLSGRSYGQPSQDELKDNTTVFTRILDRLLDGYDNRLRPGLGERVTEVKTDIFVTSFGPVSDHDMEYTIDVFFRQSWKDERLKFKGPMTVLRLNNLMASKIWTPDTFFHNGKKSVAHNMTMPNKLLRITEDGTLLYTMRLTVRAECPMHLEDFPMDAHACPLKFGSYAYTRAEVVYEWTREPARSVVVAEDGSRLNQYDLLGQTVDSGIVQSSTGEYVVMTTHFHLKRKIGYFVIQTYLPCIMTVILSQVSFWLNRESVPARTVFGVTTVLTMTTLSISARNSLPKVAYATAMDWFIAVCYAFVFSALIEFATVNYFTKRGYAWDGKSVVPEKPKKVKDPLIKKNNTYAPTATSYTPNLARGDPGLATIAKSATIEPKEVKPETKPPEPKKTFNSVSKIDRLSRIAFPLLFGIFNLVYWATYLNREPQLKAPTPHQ
Assay [6] addresses T1, Muscarinic acetylcholine receptor M1. Format: functional.
Another assay deals with T3, Androgen receptor (Homo sapiens, UniProt P10275).
T3 sequence (P10275 whole entry): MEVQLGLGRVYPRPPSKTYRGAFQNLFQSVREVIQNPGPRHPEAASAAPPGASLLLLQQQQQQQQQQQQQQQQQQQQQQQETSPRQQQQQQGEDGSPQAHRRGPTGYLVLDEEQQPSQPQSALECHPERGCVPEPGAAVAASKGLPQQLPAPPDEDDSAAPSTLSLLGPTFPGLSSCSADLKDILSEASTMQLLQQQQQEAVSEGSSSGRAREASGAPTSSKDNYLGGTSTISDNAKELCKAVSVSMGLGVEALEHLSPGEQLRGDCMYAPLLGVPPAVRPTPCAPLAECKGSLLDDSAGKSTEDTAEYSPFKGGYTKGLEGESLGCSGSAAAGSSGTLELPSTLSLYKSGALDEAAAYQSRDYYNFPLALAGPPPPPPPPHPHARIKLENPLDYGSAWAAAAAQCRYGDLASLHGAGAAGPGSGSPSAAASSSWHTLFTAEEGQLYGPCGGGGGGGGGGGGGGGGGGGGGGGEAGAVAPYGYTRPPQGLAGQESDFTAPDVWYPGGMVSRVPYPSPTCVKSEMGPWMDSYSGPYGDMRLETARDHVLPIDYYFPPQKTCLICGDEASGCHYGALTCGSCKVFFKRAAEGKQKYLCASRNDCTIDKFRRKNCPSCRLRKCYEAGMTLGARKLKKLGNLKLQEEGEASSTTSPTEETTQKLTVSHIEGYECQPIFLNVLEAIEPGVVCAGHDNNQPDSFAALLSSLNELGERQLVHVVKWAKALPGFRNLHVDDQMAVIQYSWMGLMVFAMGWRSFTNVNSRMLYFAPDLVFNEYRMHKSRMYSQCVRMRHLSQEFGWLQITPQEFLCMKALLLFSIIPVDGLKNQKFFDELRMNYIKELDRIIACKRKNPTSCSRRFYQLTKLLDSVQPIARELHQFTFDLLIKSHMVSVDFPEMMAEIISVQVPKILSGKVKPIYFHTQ

For a further assay, the target named is T4, Adenosine receptor A1 (Homo sapiens, UniProt P30542).
T4 sequence (P30542 whole entry): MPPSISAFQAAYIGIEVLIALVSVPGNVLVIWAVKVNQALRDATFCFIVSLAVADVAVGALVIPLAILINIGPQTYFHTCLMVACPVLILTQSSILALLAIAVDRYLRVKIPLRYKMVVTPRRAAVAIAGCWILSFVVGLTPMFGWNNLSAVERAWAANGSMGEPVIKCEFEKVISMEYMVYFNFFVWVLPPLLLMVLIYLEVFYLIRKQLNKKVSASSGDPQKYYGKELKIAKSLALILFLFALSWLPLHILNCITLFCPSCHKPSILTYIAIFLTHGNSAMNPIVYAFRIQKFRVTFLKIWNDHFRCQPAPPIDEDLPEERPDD

Assay [7] has as its target Glutamate receptor ionotropic, NMDA 1 (Rattus norvegicus, UniProt P35439).
The target in the next assay is Cannabinoid receptor 1 (Homo sapiens, UniProt P21554). Format: functional, cell-based.
Cannabinoid receptor 1, sequence (P21554 whole entry): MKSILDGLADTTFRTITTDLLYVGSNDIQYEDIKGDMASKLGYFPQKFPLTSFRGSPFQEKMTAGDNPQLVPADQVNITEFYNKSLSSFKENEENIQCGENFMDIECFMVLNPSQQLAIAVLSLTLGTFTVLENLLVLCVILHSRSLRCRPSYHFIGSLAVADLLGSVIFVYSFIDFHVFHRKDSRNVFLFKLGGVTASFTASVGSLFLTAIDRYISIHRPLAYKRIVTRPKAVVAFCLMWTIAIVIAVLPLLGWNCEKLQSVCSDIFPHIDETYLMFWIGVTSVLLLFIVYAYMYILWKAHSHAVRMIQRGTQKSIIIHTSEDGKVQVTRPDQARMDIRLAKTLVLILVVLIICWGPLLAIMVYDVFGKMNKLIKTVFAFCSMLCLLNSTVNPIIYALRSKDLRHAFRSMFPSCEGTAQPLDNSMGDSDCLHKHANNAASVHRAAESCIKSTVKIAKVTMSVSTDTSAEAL
Assay [8] deals with 5-hydroxytryptamine receptor 2B (Homo sapiens, UniProt P41595). Format: functional, cell-based.
5-hydroxytryptamine receptor 2B, sequence (P41595 whole entry): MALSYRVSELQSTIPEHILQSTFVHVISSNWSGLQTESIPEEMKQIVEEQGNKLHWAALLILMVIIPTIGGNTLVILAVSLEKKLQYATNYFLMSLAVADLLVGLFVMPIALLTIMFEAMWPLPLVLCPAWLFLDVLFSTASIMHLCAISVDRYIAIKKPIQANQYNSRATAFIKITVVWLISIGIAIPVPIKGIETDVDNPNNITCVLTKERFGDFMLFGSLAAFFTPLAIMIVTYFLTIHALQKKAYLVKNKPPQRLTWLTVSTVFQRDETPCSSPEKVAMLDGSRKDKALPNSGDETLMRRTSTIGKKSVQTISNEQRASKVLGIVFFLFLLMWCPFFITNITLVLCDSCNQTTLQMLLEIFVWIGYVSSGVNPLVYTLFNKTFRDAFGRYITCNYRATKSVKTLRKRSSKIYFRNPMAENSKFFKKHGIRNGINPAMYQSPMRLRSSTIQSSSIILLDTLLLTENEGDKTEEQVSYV
The target in assay [9] is Gamma-aminobutyric acid receptor subunit alpha-1/alpha-2/beta-2/gamma-2 (Homo sapiens, UniProt P14867+P18507+P47869+P47870). Type of assay: protein-complex assay.
Gamma-aminobutyric acid receptor subunit alpha-1/alpha-2/beta-2/gamma-2, sequence (P14867 whole entry): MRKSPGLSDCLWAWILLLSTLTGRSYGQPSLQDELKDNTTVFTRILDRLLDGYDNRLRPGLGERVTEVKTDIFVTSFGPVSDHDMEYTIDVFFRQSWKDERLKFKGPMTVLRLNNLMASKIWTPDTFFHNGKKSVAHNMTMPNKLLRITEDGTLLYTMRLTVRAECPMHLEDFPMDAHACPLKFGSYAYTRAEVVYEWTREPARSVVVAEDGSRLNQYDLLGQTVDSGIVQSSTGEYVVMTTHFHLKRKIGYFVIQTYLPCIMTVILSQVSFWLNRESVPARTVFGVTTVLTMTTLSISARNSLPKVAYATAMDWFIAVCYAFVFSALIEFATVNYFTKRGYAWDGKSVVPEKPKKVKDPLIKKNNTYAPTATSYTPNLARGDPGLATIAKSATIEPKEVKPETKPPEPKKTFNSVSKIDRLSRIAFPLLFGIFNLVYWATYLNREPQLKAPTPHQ
Gamma-aminobutyric acid receptor subunit alpha-1/alpha-2/beta-2/gamma-2, sequence (P47870 whole entry): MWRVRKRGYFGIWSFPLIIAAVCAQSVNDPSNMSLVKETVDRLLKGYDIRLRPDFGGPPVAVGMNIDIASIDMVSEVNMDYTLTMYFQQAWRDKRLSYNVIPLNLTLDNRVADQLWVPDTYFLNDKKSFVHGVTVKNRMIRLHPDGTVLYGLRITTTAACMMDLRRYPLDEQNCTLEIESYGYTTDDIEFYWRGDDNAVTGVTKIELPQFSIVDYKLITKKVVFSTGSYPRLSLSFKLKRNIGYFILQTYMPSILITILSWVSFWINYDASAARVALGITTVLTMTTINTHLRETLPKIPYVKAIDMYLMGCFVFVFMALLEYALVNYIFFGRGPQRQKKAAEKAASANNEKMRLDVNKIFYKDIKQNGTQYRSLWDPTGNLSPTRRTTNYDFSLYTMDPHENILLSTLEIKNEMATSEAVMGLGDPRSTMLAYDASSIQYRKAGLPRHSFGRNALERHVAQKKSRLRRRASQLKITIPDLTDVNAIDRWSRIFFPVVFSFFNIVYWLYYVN
Gamma-aminobutyric acid receptor subunit alpha-1/alpha-2/beta-2/gamma-2, sequence (P18507 whole entry): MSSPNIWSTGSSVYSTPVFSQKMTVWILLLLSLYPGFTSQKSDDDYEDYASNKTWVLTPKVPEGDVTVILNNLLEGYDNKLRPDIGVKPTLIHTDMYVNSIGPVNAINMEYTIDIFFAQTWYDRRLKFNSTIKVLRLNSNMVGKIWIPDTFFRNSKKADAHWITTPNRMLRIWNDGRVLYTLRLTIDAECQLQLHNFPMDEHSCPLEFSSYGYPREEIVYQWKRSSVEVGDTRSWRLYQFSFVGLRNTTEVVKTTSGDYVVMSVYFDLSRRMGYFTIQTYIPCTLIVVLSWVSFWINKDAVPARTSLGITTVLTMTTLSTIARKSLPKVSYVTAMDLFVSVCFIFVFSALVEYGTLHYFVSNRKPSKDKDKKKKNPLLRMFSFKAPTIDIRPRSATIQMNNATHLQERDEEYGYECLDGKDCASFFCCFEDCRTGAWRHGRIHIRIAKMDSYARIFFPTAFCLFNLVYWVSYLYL
Gamma-aminobutyric acid receptor subunit alpha-1/alpha-2/beta-2/gamma-2, sequence (P47869 whole entry): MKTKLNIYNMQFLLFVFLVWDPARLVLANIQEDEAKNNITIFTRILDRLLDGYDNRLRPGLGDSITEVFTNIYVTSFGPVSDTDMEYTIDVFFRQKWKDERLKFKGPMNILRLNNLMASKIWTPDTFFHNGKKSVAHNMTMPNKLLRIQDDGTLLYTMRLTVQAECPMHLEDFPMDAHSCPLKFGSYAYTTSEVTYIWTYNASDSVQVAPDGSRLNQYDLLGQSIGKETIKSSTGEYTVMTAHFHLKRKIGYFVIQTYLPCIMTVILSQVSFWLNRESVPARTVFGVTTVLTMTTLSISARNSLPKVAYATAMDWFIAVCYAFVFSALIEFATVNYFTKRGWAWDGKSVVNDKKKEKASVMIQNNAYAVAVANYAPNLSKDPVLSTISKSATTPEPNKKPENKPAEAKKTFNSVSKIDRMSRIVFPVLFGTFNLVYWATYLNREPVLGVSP
Further: assay procedure not described here.

5-hydroxytryptamine receptor 2A, sequence (P28223 whole entry): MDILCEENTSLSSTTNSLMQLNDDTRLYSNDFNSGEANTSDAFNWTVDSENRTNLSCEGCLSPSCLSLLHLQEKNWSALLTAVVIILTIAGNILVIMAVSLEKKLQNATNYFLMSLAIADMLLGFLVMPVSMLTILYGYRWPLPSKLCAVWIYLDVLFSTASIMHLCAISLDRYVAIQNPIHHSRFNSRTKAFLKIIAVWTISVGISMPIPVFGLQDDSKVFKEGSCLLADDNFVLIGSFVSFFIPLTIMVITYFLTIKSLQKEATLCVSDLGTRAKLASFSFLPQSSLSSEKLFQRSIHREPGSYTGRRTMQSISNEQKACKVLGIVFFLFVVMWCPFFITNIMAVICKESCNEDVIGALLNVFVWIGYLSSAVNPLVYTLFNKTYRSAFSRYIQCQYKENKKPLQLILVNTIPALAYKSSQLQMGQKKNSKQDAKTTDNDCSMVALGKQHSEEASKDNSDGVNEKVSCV

For the compound `COc1ccc(C(=O)c2ccccc2)c(O)c1` [OXYBENZONE], the concentration at half-maximal activity (AC50) was greater than 10 µM in assay [1]; greater than 30 µM in assay [2]; greater than 30 µM in assay [3]; greater than 30 µM in assay [4]; greater than 10 µM at Thromboxane A2 receptor; greater than 30 µM in [5]. The AC50 (in assay [6]; on Androgen receptor; at Adenosine receptor A1; in assay [7]; on Cannabinoid receptor 1; in [8]) was greater than 30 µM each time.
`COc1c(OCCCN2CCOCC2)ccc2c1N=C(NC(=O)c1cnc(N)nc1)N1CCN=C21` [COPANLISIB]: the AC50 (in [1]; in assay [2]; at Thromboxane A2 receptor; in [5]; at Androgen receptor; on Adenosine receptor A1) was greater than 30 µM each time.
Regarding `CC(=O)O[C@]1(C(C)=O)CC[C@H]2[C@@H]3CCC4=CC(=O)CCC4=C3[C@@H](c3ccc(N(C)C)cc3)C[C@@]21C` [ULIPRISTAL ACETATE], the AC50 in assay [1] was greater than 30 µM; in [2] it was greater than 30 µM; at Thromboxane A2 receptor it was greater than 30 µM; in [5], greater than 30 µM; at Androgen receptor, 0.03 µM; on Adenosine receptor A1, greater than 30 µM.
For `CC(C)(C)NCC(O)COc1ccccc1C#N` (centres undefined) [BUNITROLOL], the AC50 (in assay [1]; in [2]; in assay [3]; in assay [4]; at Thromboxane A2 receptor; in [5]) was greater than 30 µM each time. The half-maximal activity concentration (AC50) in assay [6] was greater than 30 µM; on Androgen receptor it was greater than 30 µM; at Adenosine receptor A1 it was greater than 30 µM; in assay [7] it was greater than 30 µM; on Cannabinoid receptor 1, greater than 30 µM; in assay [8], 21 µM.
Consider `COCC(=O)O[C@]1(CCN(C)CCCc2nc3ccccc3[nH]2)CCc2cc(F)ccc2[C@@H]1C(C)C` [MIBEFRADIL], for which the AC50 in assay [1] is greater than 3 µM; in assay [2] it was 17.7 µM; in assay [9], greater than 10 µM; at Thromboxane A2 receptor, greater than 3 µM; in assay [5], greater than 30 µM; on Androgen receptor it was greater than 30 µM. The same compound gave a half-maximal activity concentration (AC50) at Adenosine receptor A1 greater than 30 µM.
As to `CC1(C)S[C@@H]2[C@H](NC(=O)[C@H](NC(=O)c3cnc4cccnc4c3O)c3ccccc3)C(=O)N2[C@H]1C(=O)O` [APALCILLIN], the concentration at half-maximal activity (AC50) in [1] is greater than 30 µM; in [2], greater than 30 µM; at Thromboxane A2 receptor, greater than 30 µM; in assay [5] it was 1.25 µM; at Androgen receptor it was greater than 30 µM; on Adenosine receptor A1, greater than 30 µM.

For the origin of these results see ChEMBL document CHEMBL5291721, “A preclinical secondary pharmacology resource illuminates target-adverse drug reaction associations of marketed drugs” (Nat Commun, 2023).
